From US12637424B2, “Pharmaceutical salt of an arylpyrrole derivative” (SENTINEL ONCOLOGY LIMITED, priority 2020, dated 2026)

Assays:
Assay in all cases: DiscoverX KinomeScreen competition binding assay (kinase selectivity panel)
[1] = molecular target: T1, panel of ninety-seven kinases (Homo sapiens, UniProt O14757); settings: CHEK1; screened at 3000 nM
T1 construct: purchased DiscoverX; host or cells: E. coli (BL21-derived, T7 phage display) or HEK-293
Experimental: (§1) This has been investigated by testing atropisomer A-2 for off-target activity against a panel of ninety-seven kinases distributed across the kinome at a concentration of 3 μM using the DiscoverX KinomeScreen assay. The DiscoverX KinomeScreen assay is a site-directed competition binding assay which measures the binding affinity of a compound to a kinase, by use of a solid supported control compound which can bind or capture the kinases in solution. In the absence of a kinase-inhibitor test compound, all of the kinase will bind to the solid support. If a kinase-inhibitor test compound is added to the assay mix, the amount of kinase binding to the solid support will be reduced, the extent of reduction being dependent on the potency of the test compound as a kinase inhibitor. […] For most assays, kinase-tagged T7 phage strains were grown in parallel in 24-well blocks in an E. coli host derived from the BL21 strain. E. coli were grown to log-phase and infected with T7 phage from a frozen stock (multiplicity of infection=0.4) and incubated with shaking at 32° C. until lysis (90-150 minutes). The lysates were centrifuged (6,000×g) and filtered (0.2 μm) to remove cell debris. The remaining kinases were produced in HEK-293 cells and subsequently tagged with DNA for qPCR detection. Streptavidin-coated magnetic beads were treated with biotinylated small molecule ligands for 30 minutes at room temperature to generate affinity resins for kinase assays. The liganded beads were blocked with excess biotin and washed with blocking buffer (SeaBlock (Pierce), 1% BSA, 0.05% Tween 20, 1 mM DTT) to remove unbound ligand and to reduce non-specific phage binding. […] Test compounds were prepared as 40× stocks in 100% DMSO and directly diluted into the assay. All reactions were performed in polypropylene 384-well plates in a final volume of 0.02 ml. […] The beads were then re-suspended in elution buffer (1×PBS, 0.05% Tween 20, 0.5 μM non-biotinylated affinity ligand) and incubated at room temperature with shaking for 30 minutes. The kinase concentration in the eluates was measured by qPCR. Compounds that bind the kinase active site and directly (sterically) or indirectly (allosterically) prevent kinase binding to the immobilized ligand, will reduce the amount of kinase captured on the solid support. […] The strength of binding of the test molecule to the kinase can be expressed as the percent control (% Ctrl) The compound(s) were screened at 3000 nM concentration, and results for primary screen binding interactions are reported as ‘% Ctrl’, where lower numbers indicate stronger hits in the matrix on the following page(s). [formula] • negative control=DMSO (100% Ctrl) • positive control=control compound (0% Ctrl)

[2] = molecular target: T2, panel of ninety-seven kinases (Homo sapiens, UniProt O15111); settings: CHUK; screened at 3000 nM
T2 construct: purchased DiscoverX; host or cells: E. coli (BL21-derived, T7 phage display) or HEK-293
Experimental: as §1

[3] = molecular target: T3, panel of ninety-seven kinases (Homo sapiens, UniProt O75116); settings: ROCK2; screened at 3000 nM
T3 construct: purchased DiscoverX; host or cells: E. coli (BL21-derived, T7 phage display) or HEK-293
Experimental: as §1

[4] = molecular target: T4, panel of ninety-seven kinases (Homo sapiens, UniProt P07333); settings: CSF1R; screened at 3000 nM
T4 construct: purchased DiscoverX; host or cells: E. coli (BL21-derived, T7 phage display) or HEK-293
Experimental: as §1

[5] = molecular target: T5, panel of ninety-seven kinases (Homo sapiens, UniProt P08581); settings: MET; screened at 3000 nM
T5 construct: purchased DiscoverX; host or cells: E. coli (BL21-derived, T7 phage display) or HEK-293
Experimental: as §1

[6] = molecular target: T6, panel of ninety-seven kinases (Homo sapiens, UniProt P22607); settings: FGFR3; screened at 3000 nM
T6 construct: purchased DiscoverX; host or cells: E. coli (BL21-derived, T7 phage display) or HEK-293
Experimental: as §1

[7] = molecular target: T7, panel of ninety-seven kinases (Homo sapiens, UniProt P24941); settings: CDK2; screened at 3000 nM
T7 construct: purchased DiscoverX; host or cells: E. coli (BL21-derived, T7 phage display) or HEK-293
Experimental: as §1

[8] = molecular target: T8, panel of ninety-seven kinases (Homo sapiens, UniProt P27361); settings: MAPK3; screened at 3000 nM
T8 construct: purchased DiscoverX; host or cells: E. coli (BL21-derived, T7 phage display) or HEK-293
Experimental: as §1

[9] = molecular target: T9, panel of ninety-seven kinases (Homo sapiens, UniProt P27448); settings: MARK3; screened at 3000 nM
T9 construct: purchased DiscoverX; host or cells: E. coli (BL21-derived, T7 phage display) or HEK-293
Experimental: as §1

[10] = molecular target: T10, panel of ninety-seven kinases (Homo sapiens, UniProt P29597); settings: TYK2; screened at 3000 nM
T10 construct: purchased DiscoverX; host or cells: E. coli (BL21-derived, T7 phage display) or HEK-293
Experimental: as §1

[11] = molecular target: T11, panel of ninety-seven kinases (Homo sapiens, UniProt P31751); settings: AKT2; screened at 3000 nM
T11 construct: purchased DiscoverX; host or cells: E. coli (BL21-derived, T7 phage display) or HEK-293
Experimental: as §1

[12] = molecular target: T12, panel of ninety-seven kinases (Homo sapiens, UniProt P36888); settings: FLT3; screened at 3000 nM
T12 construct: purchased DiscoverX; host or cells: E. coli (BL21-derived, T7 phage display) or HEK-293
Experimental: as §1

[13] = molecular target: T13, panel of ninety-seven kinases (Homo sapiens, UniProt P36896); settings: ACVR1B; screened at 3000 nM
T13 construct: purchased DiscoverX; host or cells: E. coli (BL21-derived, T7 phage display) or HEK-293
Experimental: as §1

[14] = molecular target: T14, panel of ninety-seven kinases (Homo sapiens, UniProt P50613); settings: CDK7; screened at 3000 nM
T14 construct: purchased DiscoverX; host or cells: E. coli (BL21-derived, T7 phage display) or HEK-293
Experimental: as §1

[15] = molecular target: T15, panel of ninety-seven kinases (Homo sapiens, UniProt P78368); settings: CSNK1G2; screened at 3000 nM
T15 construct: purchased DiscoverX; host or cells: E. coli (BL21-derived, T7 phage display) or HEK-293
Experimental: as §1

[16] = molecular target: T16, panel of ninety-seven kinases (Homo sapiens, UniProt Q06187); settings: BTK; screened at 3000 nM
T16 construct: purchased DiscoverX; host or cells: E. coli (BL21-derived, T7 phage display) or HEK-293
Experimental: as §1

[17] = molecular target: T17, panel of ninety-seven kinases (Homo sapiens, UniProt Q15303); settings: ERBB4; screened at 3000 nM
T17 construct: purchased DiscoverX; host or cells: E. coli (BL21-derived, T7 phage display) or HEK-293
Experimental: as §1

[18] = molecular target: T18, panel of ninety-seven kinases (Homo sapiens, UniProt Q16539); settings: MAPK14; screened at 3000 nM
T18 construct: purchased DiscoverX; host or cells: E. coli (BL21-derived, T7 phage display) or HEK-293
Experimental: as §1

[19] = molecular target: T19, panel of ninety-seven kinases (Homo sapiens, UniProt Q9H093); settings: NUAK2; screened at 3000 nM
T19 construct: purchased DiscoverX; host or cells: E. coli (BL21-derived, T7 phage display) or HEK-293
Experimental: as §1

[20] = molecular target: T20, panel of ninety-seven kinases (Homo sapiens, UniProt Q9H4B4); settings: PLK3; screened at 3000 nM
T20 construct: purchased DiscoverX; host or cells: E. coli (BL21-derived, T7 phage display) or HEK-293
Experimental: as §1

[21] = molecular target: T21, panel of ninety-seven kinases (Homo sapiens, UniProt Q9HBH9); settings: MKNK2; screened at 3000 nM
T21 construct: purchased DiscoverX; host or cells: E. coli (BL21-derived, T7 phage display) or HEK-293
Experimental: as §1

[22] = molecular target: T22, panel of ninety-seven kinases (Homo sapiens, UniProt Q9UM73); settings: ALK; screened at 3000 nM
T22 construct: purchased DiscoverX; host or cells: E. coli (BL21-derived, T7 phage display) or HEK-293
Experimental: as §1

T8 sequence (P27361 whole entry): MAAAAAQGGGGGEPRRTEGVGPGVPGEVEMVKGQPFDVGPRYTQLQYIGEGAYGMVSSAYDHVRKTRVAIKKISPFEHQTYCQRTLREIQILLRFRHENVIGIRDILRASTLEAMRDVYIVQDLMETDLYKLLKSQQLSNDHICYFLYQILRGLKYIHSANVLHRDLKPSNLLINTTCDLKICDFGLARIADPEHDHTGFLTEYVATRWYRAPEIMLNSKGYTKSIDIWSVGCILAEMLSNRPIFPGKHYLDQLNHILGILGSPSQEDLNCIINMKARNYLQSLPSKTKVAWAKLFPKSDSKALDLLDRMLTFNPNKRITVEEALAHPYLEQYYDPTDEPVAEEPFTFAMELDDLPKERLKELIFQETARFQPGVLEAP
T5 sequence (P08581 25-1390): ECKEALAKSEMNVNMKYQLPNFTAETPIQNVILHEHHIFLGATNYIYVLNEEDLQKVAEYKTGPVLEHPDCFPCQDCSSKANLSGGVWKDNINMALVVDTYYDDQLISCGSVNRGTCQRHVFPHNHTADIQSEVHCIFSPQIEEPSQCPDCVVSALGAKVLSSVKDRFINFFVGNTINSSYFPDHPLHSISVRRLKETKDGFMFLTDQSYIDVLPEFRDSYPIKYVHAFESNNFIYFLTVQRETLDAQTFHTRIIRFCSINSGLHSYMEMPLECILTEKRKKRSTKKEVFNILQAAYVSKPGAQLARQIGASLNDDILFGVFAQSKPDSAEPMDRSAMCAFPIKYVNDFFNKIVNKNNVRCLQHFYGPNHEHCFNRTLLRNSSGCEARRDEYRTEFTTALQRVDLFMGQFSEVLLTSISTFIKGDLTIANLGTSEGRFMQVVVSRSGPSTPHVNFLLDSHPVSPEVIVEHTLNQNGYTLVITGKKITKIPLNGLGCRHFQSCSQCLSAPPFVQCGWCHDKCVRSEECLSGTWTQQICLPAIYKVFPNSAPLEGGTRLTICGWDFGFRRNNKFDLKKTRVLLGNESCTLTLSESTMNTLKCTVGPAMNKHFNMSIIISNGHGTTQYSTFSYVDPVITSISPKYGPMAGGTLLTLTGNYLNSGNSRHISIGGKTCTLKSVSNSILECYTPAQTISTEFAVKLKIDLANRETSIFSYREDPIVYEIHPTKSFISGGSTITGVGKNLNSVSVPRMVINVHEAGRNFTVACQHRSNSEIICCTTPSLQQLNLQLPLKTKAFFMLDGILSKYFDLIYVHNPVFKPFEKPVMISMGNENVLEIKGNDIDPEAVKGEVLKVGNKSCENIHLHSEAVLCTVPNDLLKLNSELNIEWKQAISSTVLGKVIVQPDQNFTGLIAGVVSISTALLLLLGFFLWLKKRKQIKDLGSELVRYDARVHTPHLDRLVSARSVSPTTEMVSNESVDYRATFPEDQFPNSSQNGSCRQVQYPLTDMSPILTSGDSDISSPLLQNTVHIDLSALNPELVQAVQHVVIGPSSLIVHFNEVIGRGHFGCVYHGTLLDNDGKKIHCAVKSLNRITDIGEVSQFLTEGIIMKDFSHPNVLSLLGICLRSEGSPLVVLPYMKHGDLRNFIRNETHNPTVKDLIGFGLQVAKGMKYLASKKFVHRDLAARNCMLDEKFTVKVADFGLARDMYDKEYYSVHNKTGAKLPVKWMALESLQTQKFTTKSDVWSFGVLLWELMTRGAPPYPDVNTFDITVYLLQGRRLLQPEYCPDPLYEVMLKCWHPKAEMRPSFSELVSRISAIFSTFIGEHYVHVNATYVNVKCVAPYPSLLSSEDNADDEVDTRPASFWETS
T1 sequence (O14757 whole entry): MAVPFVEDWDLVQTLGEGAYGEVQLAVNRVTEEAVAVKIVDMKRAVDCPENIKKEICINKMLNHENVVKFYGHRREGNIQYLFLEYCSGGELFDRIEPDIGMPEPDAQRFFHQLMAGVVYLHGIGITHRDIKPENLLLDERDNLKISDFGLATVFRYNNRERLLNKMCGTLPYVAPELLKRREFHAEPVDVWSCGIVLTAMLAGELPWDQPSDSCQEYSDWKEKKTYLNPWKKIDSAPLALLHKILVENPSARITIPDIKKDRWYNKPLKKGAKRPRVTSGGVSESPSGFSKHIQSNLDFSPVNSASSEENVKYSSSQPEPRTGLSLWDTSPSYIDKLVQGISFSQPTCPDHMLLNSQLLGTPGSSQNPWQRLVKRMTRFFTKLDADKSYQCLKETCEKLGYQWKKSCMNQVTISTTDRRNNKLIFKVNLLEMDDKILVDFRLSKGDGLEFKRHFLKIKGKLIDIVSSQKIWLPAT
T17 sequence (Q15303 26-1308): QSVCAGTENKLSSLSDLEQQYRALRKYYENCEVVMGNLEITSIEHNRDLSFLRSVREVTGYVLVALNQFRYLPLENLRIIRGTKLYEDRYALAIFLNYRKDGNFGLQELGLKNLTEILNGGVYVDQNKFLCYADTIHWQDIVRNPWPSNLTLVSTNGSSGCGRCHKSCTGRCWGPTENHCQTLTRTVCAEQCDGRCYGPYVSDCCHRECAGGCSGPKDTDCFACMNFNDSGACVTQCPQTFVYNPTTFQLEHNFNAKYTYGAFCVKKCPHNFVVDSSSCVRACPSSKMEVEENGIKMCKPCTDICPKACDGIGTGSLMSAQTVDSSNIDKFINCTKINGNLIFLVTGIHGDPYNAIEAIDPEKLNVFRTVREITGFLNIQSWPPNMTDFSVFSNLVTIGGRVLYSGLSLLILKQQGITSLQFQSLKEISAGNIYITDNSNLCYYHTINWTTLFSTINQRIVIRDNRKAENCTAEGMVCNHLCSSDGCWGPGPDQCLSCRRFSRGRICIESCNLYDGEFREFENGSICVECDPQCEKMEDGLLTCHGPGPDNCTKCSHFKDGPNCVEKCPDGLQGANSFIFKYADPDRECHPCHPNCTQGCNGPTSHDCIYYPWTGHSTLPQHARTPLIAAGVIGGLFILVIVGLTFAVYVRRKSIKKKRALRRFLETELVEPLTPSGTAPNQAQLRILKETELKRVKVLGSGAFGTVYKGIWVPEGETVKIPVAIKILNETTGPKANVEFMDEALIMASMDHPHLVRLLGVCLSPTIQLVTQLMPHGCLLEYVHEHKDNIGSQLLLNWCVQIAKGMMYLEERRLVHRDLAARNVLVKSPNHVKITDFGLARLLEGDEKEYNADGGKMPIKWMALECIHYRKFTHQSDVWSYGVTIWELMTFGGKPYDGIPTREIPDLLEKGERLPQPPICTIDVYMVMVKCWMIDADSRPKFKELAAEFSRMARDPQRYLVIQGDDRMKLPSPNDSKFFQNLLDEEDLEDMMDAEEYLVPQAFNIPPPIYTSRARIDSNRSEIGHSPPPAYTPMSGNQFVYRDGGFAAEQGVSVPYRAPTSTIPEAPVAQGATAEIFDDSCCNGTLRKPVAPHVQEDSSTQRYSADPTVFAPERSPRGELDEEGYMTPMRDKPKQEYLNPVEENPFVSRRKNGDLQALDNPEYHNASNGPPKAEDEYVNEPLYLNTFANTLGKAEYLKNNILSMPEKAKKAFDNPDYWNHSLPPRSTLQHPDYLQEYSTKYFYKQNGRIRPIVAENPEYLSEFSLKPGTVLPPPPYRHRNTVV
T21 sequence (Q9HBH9 whole entry): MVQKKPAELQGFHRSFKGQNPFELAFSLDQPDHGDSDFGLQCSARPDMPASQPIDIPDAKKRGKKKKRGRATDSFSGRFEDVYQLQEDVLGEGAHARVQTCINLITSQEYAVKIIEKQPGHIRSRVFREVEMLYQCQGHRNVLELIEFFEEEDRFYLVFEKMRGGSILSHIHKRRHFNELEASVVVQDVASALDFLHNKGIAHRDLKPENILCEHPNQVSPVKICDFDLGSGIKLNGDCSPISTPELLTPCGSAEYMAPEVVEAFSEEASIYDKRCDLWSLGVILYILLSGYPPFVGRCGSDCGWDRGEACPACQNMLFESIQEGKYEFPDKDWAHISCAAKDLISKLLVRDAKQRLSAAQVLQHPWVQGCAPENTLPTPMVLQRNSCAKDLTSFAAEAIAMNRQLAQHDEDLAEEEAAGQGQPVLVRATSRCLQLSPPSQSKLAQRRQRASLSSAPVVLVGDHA
T2 sequence (O15111 whole entry): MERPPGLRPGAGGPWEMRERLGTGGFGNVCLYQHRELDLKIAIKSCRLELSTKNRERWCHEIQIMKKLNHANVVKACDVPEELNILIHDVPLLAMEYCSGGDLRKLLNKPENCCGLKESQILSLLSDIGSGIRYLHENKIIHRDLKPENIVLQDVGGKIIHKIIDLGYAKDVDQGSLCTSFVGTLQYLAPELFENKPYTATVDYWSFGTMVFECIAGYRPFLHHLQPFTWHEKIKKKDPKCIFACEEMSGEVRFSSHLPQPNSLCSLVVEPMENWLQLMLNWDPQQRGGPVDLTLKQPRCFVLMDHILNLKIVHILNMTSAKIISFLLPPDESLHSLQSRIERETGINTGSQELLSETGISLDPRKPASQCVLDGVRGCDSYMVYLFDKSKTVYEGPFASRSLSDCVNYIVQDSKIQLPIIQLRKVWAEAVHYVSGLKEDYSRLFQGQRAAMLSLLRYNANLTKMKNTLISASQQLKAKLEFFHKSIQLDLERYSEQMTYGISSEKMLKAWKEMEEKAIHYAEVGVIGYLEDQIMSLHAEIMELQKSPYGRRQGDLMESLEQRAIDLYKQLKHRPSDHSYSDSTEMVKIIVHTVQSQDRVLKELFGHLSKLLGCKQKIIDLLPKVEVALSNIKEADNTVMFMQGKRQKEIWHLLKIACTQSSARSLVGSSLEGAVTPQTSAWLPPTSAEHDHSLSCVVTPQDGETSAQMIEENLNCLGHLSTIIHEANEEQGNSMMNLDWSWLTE
T14 sequence (P50613 whole entry): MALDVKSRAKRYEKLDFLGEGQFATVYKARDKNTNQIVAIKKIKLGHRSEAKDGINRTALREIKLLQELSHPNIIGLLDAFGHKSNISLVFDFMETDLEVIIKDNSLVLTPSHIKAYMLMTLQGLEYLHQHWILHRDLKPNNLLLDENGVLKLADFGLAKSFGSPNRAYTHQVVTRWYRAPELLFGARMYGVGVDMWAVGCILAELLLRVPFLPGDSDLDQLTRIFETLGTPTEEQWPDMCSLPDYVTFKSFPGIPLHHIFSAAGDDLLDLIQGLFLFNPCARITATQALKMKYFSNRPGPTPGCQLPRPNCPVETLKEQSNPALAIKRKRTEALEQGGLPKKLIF

% Ctrl @ 3 μM [1]: 100 % Ctrl
% Ctrl @ 3 μM [2]: 100 % Ctrl
% Ctrl @ 3 μM [3]: 88 % Ctrl
% Ctrl @ 3 μM [4]: 100 % Ctrl
% Ctrl @ 3 μM [5]: 100 % Ctrl
% Ctrl @ 3 μM [6]: 92 % Ctrl
% Ctrl @ 3 μM [7]: 94 % Ctrl
% Ctrl @ 3 μM [8]: 99 % Ctrl
% Ctrl @ 3 μM [9]: 100 % Ctrl
% Ctrl @ 3 μM [10]: 100 % Ctrl
% Ctrl @ 3 μM [11]: 100 % Ctrl
% Ctrl @ 3 μM [12]: 100 % Ctrl
% Ctrl @ 3 μM [13]: 96 % Ctrl
% Ctrl @ 3 μM [14]: 100 % Ctrl
% Ctrl @ 3 μM [15]: 100 % Ctrl
% Ctrl @ 3 μM [16]: 94 % Ctrl
% Ctrl @ 3 μM [17]: 99 % Ctrl
% Ctrl @ 3 μM [18]: 100 % Ctrl
% Ctrl @ 3 μM [19]: 99 % Ctrl
% Ctrl @ 3 μM [20]: 87 % Ctrl
% Ctrl @ 3 μM [21]: 85 % Ctrl
% Ctrl @ 3 μM [22]: 89 % Ctrl
SMILES: CN(C)CCNC(=O)c1ccc(-c2ccc(-c3ccc(Cl)cc3)n2-c2ccccc2C(F)(F)F)cc1 (single isomer, unassigned) [Atropisomer A-2]
